Assay [1] has as its target EGFR (ErbB1) T790M (Homo sapiens (Human), UniProt P00533, T790M). Briefly: Z'-LYTE kinase inhibition assay, EGFR T790M. Format: biochemical. As to conditions: read-out: % inhibition against EGFR T790M (Compound at 1 μM). Here is the method: Inhibitory activities of compounds against BTK, EGFR and EGFR mutants (EGFR L858R, EGFR T790M, EGFR L858R/T790M), FGFR1, FGFR2, JAK2, JAK3 and KDR were measured by Invitrogen using Z'-LYTE® Method as briefly described in the following. Test Compounds are screened in 1% DMSO (final) in the well. For 10 point titrations, 3-fold serial dilutions are conducted from the starting concentration. All ATP Solutions are diluted to a 4× working concentration in Kinase Buffer (50 mM HEPES pH 7.5, 0.01% BRIJ-35, 10 mM MgCl2, 1 mM EGTA). Peptide/Kinase Mixtures are diluted to a 2× working concentration in the appropriate Kinase Buffers as described below. (iii) Peptide/Kinase Mixtures for Measurement of EGFR (ErbB1) T790M: […] After the 1 hour Kinase Reaction incubation, 5 μL of a 1:64 dilution of Development Reagent B is added. Reaction starts by 30-second shaking of mixture consisting of 2.5 μL 4× test compound, […] 2× kinase reaction mixture and 2.5 μL 4×ATP Solution on Bar-coded Corning, low volume NBS, black 384-well plate (Corning Cat. #3676). Then the mixture is incubated for 60-minute at room temperature for the kinase reaction, followed by addition of 5 μL of a 1:1024 dilution of development reagent A and 30-second plate shake. The mixture is then incubated for another 60-minute at room temperature for development reaction. Finally fluorescence is read by plate reader.

For assay [2], the target named is FGFR2 (Homo sapiens (Human), UniProt P21802). The assay can be described thus: Z'-LYTE kinase inhibition assay, FGFR2. Format: biochemical. Particulars: read-out: IC50 against FGFR2. Here is the method: (§1) Inhibitory activities of compounds against BTK, EGFR and EGFR mutants (EGFR L858R, EGFR T790M, EGFR L858R/T790M), FGFR1, FGFR2, JAK2, JAK3 and KDR were measured by Invitrogen using Z'-LYTE® Method as briefly described in the following.
Chain of FGFR2 (P21802 22-821): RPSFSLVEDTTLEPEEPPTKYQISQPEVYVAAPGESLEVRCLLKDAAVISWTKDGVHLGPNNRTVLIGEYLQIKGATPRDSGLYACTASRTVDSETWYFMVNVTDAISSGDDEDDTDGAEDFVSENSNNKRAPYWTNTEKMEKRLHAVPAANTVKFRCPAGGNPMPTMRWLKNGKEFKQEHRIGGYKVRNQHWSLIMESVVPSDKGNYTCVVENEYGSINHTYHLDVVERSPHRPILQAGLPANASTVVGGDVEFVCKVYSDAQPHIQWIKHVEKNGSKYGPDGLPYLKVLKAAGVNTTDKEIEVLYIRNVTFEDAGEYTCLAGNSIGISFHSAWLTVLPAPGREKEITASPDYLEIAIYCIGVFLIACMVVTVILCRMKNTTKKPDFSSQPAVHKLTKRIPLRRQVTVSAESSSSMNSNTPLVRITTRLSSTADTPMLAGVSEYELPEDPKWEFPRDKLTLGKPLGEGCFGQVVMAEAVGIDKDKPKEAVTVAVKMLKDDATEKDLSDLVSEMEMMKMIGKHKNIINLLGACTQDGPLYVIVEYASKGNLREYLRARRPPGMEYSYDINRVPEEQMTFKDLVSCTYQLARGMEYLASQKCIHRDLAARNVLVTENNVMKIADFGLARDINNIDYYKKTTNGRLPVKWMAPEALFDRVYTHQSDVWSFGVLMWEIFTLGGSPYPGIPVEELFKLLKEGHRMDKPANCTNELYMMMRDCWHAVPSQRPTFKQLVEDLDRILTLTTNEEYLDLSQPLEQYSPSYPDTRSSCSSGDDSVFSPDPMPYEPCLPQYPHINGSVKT
(§2) Test Compounds are screened in 1% DMSO (final) in the well. For 10 point titrations, 3-fold serial dilutions are conducted from the starting concentration. All ATP Solutions are diluted to a 4× working concentration in Kinase Buffer (50 mM HEPES pH 7.5, 0.01% BRIJ-35, 10 mM MgCl2, 1 mM EGTA). Peptide/Kinase Mixtures are diluted to a 2× working concentration in the appropriate Kinase Buffers as described below.
(v) Peptide/Kinase Mixtures for Measurement of FGFR2:
The 2×FGFR2/Tyr 04 mixture is prepared in 50 mM HEPES pH 7.5, 0.01% BRIJ-35, 10 mM MgCl2, 4 mM MnCl2, 1 mM EGTA, 2 mM DTT. The final 10 μL Kinase Reaction consists of 0.19-2.36 ng FGFR2 and 2 μM Tyr 04 in 50 mM HEPES pH 7.5, 0.01% BRIJ-35, 10 mM MgCl2, 2 mM MnCl2, 1 mM EGTA, 1 mM DTT. After the 1 hour Kinase Reaction incubation, 5 μL of a 1:64 dilution of Development Reagent B is added.
Reaction starts by 30-second shaking of mixture consisting of 2.5 μL 4× test compound, […] 2× kinase reaction mixture and 2.5 μL 4×ATP Solution on Bar-coded Corning, low volume NBS, black 384-well plate (Corning Cat. #3676). […] Finally fluorescence is read by plate reader. […]

Assay [3] addresses JAK3 (Homo sapiens (Human), UniProt P52333). The assay can be described thus: Z'-LYTE kinase inhibition assay, JAK3. Format: biochemical. As to conditions: read-out: IC50 against JAK3. On the procedure: as §1, §2
(v) Peptide/Kinase Mixtures for Measurement of JAK3:
The 2×JAK3/Tyr 06 mixture is prepared in 50 mM HEPES pH 7.5, 0.01% BRIJ-35, 10 mM MgCl2, 1 mM EGTA. The final 10 μL Kinase Reaction consists of 0.29-1.34 ng JAK3 and 2 μM Tyr 06 in 50 mM HEPES pH 7.5, 0.010/% BRIJ-35, 10 mM MgCl2, 1 mM EGTA. After the 1 hour Kinase Reaction incubation, 5 μL of a 1:64 dilution of Development Reagent A is added.
(§3) Reaction starts by 30-second shaking of mixture consisting of 2.5 μL 4× test compound, […] 2× kinase reaction mixture and 2.5 μL 4×ATP Solution on Bar-coded Corning, low volume NBS, black 384-well plate (Corning Cat. #3676). Then the mixture is incubated for 60-minute at room temperature for the kinase reaction, followed by addition of 5 μL of a 1:1024 dilution of development reagent A and 30-second plate shake. The mixture is then incubated for another 60-minute at room temperature for development reaction. Finally fluorescence is read by plate reader.
(§4) To determine IC50 of a compound against EGFR, EGFR mutant and other kinases, a series of concentrations of the compound were tested for the inhibition. […] The scale utilized in Table 4 is as follows: +++ less than 100 nM, ++ 100-500 nM and + greater than 500 nM.

Assay [4] concerns H1975 tumor xenografts. Briefly: Inhibition of tumor growth in H1975 xenograft model. As to conditions: QD x 14; for Tumor Volume Pre-treatment: baseline before treatment. Format: in vivo, BALB/c female nude mice. On the procedure: H1975 cells were implanted in BALB/c female nude mice and grown as tumor xenografts. When tumors achieved 120-200 mm^3, mice were assigned into treatment and control groups using randomized block design based upon their tumor volumes. Each group contained 6 tumor-bearing mice. Tumors were measured twice weekly in two dimensions using a caliper, and the tumor volume was calculated from two-dimensional measurements using the equation V=0.5×a×b^2 where a and b are the long and short diameters of the tumor, respectively. Relative tumor volume (RTV) was defined as TVt/TVi, the ratio of the volume on a given day (TVt) and the volume at the start of treatment (TVi). Relative tumor growth rate (T/C) was defined as RTVT/RTVC, the ratio of relative tumor volume of treatment group (RTVT) and relative tumor volume of control group (RTVC) on a given day.

Assay [5] has as its target KDR (VEGFR2) (Homo sapiens (Human), UniProt P35968). The assay can be described thus: Z'-LYTE kinase inhibition assay, KDR. Format: biochemical. Particulars: read-out: IC50 against KDR. Here is the method: as §1, §2
(v) Peptide/Kinase Mixtures for Measurement of KDR (VEGFR2):
The 2×KDR (VEGFR2)/Tyr 01 mixture is prepared in 50 mM HEPES pH 7.5, 0.01% BRIJ-35, 10 mM MgCl2, 1 mM EGTA. The final 10 μL Kinase Reaction consists of 0.5-11.7 ng KDR (VEGFR2) and 2 μM Tyr 01 in 50 mM HEPES pH 7.5, 0.01% BRIJ-35, 10 mM MgCl2, 1 mM EGTA. After the 1 hour Kinase Reaction incubation, 5 μL of a 1:256 dilution of Development Reagent B is added.
as §3, §4

The mark [6] stands for this setting: 30 mg/kg, Intraperitoneal injection.

Chain of JAK3 (P52333 whole entry): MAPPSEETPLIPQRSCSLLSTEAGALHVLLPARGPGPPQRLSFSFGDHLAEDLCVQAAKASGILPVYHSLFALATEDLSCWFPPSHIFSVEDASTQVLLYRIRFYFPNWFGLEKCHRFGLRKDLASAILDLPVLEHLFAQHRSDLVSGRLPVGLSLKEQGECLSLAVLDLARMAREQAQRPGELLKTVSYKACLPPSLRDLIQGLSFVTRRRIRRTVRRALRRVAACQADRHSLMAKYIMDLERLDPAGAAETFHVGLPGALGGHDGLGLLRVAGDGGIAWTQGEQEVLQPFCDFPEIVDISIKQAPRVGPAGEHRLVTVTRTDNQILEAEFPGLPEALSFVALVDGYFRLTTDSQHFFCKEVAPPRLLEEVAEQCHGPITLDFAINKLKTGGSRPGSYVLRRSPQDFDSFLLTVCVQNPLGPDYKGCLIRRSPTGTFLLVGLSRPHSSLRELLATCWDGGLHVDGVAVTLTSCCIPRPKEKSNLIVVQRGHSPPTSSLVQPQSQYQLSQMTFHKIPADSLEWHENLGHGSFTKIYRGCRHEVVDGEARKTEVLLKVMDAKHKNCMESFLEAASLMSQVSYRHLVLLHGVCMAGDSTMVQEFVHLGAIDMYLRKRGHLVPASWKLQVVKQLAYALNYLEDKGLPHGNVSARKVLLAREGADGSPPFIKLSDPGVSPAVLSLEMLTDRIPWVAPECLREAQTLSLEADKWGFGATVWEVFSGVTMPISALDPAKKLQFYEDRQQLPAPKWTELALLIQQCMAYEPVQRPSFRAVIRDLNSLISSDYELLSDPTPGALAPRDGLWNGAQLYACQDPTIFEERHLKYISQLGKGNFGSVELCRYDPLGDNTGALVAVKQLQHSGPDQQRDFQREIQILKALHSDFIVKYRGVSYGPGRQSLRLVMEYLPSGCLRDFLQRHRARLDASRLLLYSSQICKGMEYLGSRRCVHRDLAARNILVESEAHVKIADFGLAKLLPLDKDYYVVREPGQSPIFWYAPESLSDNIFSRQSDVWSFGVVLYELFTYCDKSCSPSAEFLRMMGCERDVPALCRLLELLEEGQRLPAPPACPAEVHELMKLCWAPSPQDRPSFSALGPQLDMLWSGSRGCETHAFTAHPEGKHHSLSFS
Chain of KDR (VEGFR2) (P35968 20-1356): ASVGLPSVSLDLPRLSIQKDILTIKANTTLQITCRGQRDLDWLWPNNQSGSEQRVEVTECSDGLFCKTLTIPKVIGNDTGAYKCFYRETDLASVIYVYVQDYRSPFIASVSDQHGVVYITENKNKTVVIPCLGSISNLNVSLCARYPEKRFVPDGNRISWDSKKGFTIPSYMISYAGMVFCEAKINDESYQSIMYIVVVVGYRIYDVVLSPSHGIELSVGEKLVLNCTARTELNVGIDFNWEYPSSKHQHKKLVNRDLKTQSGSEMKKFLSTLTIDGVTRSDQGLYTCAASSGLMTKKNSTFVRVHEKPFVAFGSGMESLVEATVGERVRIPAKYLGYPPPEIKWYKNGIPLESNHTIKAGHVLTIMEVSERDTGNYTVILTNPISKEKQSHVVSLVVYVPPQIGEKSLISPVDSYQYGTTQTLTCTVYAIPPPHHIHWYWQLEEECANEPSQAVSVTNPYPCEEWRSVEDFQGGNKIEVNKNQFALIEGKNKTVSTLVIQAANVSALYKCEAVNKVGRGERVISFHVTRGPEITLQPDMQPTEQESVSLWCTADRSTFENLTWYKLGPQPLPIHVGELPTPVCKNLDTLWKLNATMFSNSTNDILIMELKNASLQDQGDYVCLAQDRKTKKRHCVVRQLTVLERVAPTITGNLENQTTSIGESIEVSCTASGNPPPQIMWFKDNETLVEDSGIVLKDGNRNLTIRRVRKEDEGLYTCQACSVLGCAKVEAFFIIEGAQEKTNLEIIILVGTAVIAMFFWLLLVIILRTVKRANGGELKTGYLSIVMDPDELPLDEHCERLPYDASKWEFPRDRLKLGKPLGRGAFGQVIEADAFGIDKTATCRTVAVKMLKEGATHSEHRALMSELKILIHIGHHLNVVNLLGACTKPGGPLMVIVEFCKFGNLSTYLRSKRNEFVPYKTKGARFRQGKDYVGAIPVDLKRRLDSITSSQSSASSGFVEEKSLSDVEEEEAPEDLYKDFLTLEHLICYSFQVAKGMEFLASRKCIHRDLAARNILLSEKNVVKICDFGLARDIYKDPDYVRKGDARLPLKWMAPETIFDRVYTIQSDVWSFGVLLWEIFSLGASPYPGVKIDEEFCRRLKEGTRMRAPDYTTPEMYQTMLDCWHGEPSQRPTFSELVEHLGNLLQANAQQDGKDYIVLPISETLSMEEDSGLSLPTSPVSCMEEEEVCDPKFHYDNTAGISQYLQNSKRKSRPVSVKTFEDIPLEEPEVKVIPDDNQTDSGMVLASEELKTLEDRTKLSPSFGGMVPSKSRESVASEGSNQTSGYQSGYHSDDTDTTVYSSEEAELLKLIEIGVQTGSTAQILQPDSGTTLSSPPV
Chain of EGFR (ErbB1) T790M (P00533 25-1210 T790M): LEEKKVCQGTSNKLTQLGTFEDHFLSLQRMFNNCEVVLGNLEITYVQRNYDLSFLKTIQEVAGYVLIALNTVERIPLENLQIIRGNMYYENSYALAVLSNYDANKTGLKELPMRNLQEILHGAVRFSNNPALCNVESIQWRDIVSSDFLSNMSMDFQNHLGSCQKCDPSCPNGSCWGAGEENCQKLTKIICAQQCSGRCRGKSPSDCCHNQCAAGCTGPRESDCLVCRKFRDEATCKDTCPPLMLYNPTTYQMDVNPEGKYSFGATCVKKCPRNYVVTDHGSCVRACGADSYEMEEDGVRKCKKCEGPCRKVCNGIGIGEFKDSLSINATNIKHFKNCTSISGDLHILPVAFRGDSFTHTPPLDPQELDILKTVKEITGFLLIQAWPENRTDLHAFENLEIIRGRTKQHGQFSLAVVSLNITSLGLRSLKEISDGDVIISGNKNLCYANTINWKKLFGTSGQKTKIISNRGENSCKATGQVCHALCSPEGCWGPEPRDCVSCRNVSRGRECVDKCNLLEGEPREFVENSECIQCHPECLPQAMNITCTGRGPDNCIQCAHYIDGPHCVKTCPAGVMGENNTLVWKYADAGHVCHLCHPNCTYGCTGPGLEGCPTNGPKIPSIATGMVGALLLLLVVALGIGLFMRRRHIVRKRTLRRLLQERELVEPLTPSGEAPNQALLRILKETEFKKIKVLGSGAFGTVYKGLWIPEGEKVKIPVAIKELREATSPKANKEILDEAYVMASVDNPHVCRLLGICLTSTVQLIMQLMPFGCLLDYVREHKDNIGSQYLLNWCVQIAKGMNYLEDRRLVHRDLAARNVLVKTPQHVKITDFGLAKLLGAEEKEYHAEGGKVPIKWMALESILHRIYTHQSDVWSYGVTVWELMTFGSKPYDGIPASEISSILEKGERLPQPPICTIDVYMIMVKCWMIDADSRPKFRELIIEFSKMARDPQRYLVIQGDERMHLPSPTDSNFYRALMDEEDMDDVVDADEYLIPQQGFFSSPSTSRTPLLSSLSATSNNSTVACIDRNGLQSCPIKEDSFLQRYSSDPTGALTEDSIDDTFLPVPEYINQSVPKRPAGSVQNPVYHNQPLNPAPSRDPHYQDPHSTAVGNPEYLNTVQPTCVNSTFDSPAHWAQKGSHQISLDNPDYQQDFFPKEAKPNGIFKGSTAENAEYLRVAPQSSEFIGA

In the case of `C=CC(=O)Nc1cccc(-c2cccc3cnc(Nc4ccc(N5CCOCC5)cc4)nc23)c1` [Example C001, N-(3-(2-((4-morpholinophenyl)amino)quinazolin-8-yl)phenyl)acrylamide], the inhibition – broadly, the relative decrease from the control value, in per cent – at 1 µM in assay [1] was above 50%.
Take `C=CC(=O)Nc1cccc(-c2cccc3cnc(Nc4ccc(N5CCOCC5)cc4OC)nc23)c1` [Example C002, N-(3-(2-((2-methoxy-4-morpholinophenyl)amino)quinazolin-8-yl)phenyl)acrylamide]: in assay [1], the inhibition at 1 µM is above 50%.
`C=CC(=O)Nc1cccc(-c2cccc3cnc(Nc4ccc(N5CCN(C)CC5)cc4OC)nc23)c1` [Example C003, N-(3-(2-((2-methoxy-4-(4-methylpiperazin-1-yl)phenyl)amino)quinazolin-8-yl)phenyl)acrylamide]: the inhibition at 1 µM in assay [1] was above 50%.
The same measure, in the same setting: for `c1ccc(-c2cccc3cnc(Nc4ccc(N5CCOCC5)cc4)nc23)cc1` [Example C004, N-(4-morpholinophenyl)-8-phenylquinazolin-2-amine] the value was below 50%; for `C=CC(=O)Nc1cccc(-c2nccc3c(N)nc(Nc4ccc(N5CCOCC5)cc4)nc23)c1` [Example C005, N-(3-(4-amino-2-((4-morpholinophenyl)amino)pyrido[3,4-d]pyrimidin-8-yl)phenyl)acrylamide], below 50%.
On to `Fc1ccc(Cl)cc1-c1cccc2cnc(Nc3ccc(N4CCOCC4)cc3)nc12` [Example C007, 8-(5-chloro-2-fluorophenyl)-N-(4-morpholinophenyl)quinazolin-2-amine], for which the inhibition at 1 µM in assay [1] is below 50%.
For the molecule `Clc1cccc(-c2cccc3cnc(Nc4ccc(N5CCOCC5)cc4)nc23)c1` [Example C008, 8-(3-chlorophenyl)-N-(4-morpholinophenyl)quinazolin-2-amine], in assay [1], the inhibition at 1 µM is below 50%.
In the case of `Fc1cccc(-c2cccc3cnc(Nc4ccc(N5CCOCC5)cc4)nc23)c1` [Example C009, 8-(3-fluorophenyl)-N-(4-morpholinophenyl)quinazolin-2-amine], the inhibition at 1 µM in assay [1] was below 50%.
For `Fc1ccccc1-c1cccc2cnc(Nc3ccc(N4CCOCC4)cc3)nc12` [Example C010, 8-(2-fluorophenyl)-N-(4-morpholinophenyl)quinazolin-2-amine], the inhibition at 1 µM in assay [1] is below 50%.
In the case of `Clc1ccccc1-c1cccc2cnc(Nc3ccc(N4CCOCC4)cc3)nc12` [Example C011, 8-(2-chlorophenyl)-N-(4-morpholinophenyl)quinazolin-2-amine], the inhibition at 1 µM in assay [1] was below 50%.
Consider `C=CC(=O)Nc1cccc(-c2nccc3cnc(Nc4ccc(N5CCOCC5)cc4)nc23)c1` [Example C012, N-(3-(2-((4-morpholinophenyl)amino)pyrido[3,4-d]pyrimidin-8-yl)phenyl)acrylamide], for which, in assay [1], the inhibition at 1 µM was above 50%.
For the molecule `C=CC(=O)Nc1cccc(-c2cccc3cnc(Nc4ccc(N5CCN(C)CC5)cc4)nc23)c1` [Example C021, N-(3-(2-((4-(4-methylpiperazin-1-yl)phenyl)amino)quinazolin-8-yl)phenyl)acrylamide], the concentration for half-maximal inhibition (IC50) (usually the concentration that inhibits the measured activity by half) in assay [2] was below 100 nM. Moreover, the IC50 in assay [3] was below 100 nM. In assay [4] (60 mg/kg, Oral), the “T/C (relative tumor growth rate)” value is reported as 30.5%, the “Tumor Volume Post-treatment” value came out at 633.5 mm^3 and the “Tumor Volume Pre-treatment” value came out at 152.5 mm^3. Further, the IC50 in assay [5] was below 100 nM.
For `C=CC(=O)Nc1cccc(-c2cccc3cnc(Nc4ccc(N5CCN(C)CC5)nc4)nc23)c1` [Example C041, N-(3-(2-((6-(4-methylpiperazin-1-yl)pyridin-3-yl)amino)quinazolin-8-yl)phenyl)acrylamide], the IC50 in assay [3] was below 100 nM. Also, in assay [4] (setting [6]), the “T/C (relative tumor growth rate)” value was 48.7%, the “Tumor Volume Post-treatment” value turned out to be 1021.2 mm^3 and the “Tumor Volume Pre-treatment” value is given as 151.7 mm^3. The IC50 in assay [5] was below 100 nM.
For the molecule `C=CC(=O)Nc1cccc(-c2cccc3cnc(Nc4ccc(N5CCN(C)CC5)cc4F)nc23)c1` [Example C044, N-(3-(2-((2-fluoro-4-(4-methylpiperazin-1-yl)phenyl)amino)quinazolin-8-yl)phenyl)acrylamide], the IC50 in assay [3] is below 100 nM.
`C=CC(=O)Nc1cccc(-c2cccc3cnc(Nc4ccc(N5CCN(CCO)CC5)cc4)nc23)c1` [Example C059, N-(3-(2-((4-(4-(2-hydroxyethyl)piperazin-1-yl)phenyl)amino)quinazolin-8-yl)phenyl)acrylamide]: the IC50 in assay [3] is below 100 nM. Besides, in assay [4] (60 mg/kg, Oral), the “T/C (relative tumor growth rate)” value was 35.3%, the “Tumor Volume Post-treatment” value is on record as 746.4 mm^3 and the “Tumor Volume Pre-treatment” value stood at 151.6 mm^3. Besides, the half-inhibitory concentration (IC50) in assay [5] was below 100 nM.

The values are drawn from patent US10172868B2, “Substituted quinazolines for inhibiting kinase activity” (NeuPharma, Inc., priority 2013, dated 2019).
